Entries after “also recorded” stand apart in the source; their conditions may differ.
B1: activin: recombinant human activin-A (R&D Systems) (protein, UniProt P08476 311-426, looked up)
Inhibin beta A chain: GLECDGKVNICCKKQFFVSFKDIGWNDWIIAPSGYHANYCEGECPSHIAGTSGSSLSFHSTVINHYRMRGHSPFANLKSCCVPTKLRPMSMLYYDDGQNIIKKDIQNMIVEECGCS
modifications: Inhibin beta A chain

Legend:
[1] = test system: definitive endoderm cells; test: Effects of FGFs on intestinal differentiation of definitive endoderm cells (RT-PCR, Cdx2 immunohistochemistry); format: cell-based, mouse
Procedure: The ES cells were culture on M15 cells added with 20 ng/mL of activin and 50 ng/mL of bFGF in DMEM medium containing 10% fetal bovine sera and […] of glucose for 5 days, and were analyzed using flow cytometry for definitive endoderm. For intestinal differentiation, the ES cells were further cultured on M15 or MEF cells, in the presence of BIO and DAPT, or without BIO and DAPT but with FGFs, in media with 10% KSR at a glucose concentration of 2000 mg/mL.
256 ng/mL of FGF2 (human bFGF) (Peprotech); and
50 ng/mL of FGF4 (Peprotech), FGF5 (Sigma), FGF7 (R&D Systems), FGF8 (Cosmo Bio), FGF9 (Peprotech), FGF10 (R&D Systems) and FGF18 (Sigma), respectively.
RNA was extracted from the ES cells using TRI Reagent (Sigma) or RNeasy micro-kit (Qiagen), and then, was treated with DNase (Sigma). Three micrograms of RNA were reverse-transcribed using a MMLV reverse transcriptase (Toyobo) and oligo dT primers (Toyobo). The PCR conditions for each cycle include initial denaturation at 96° C. for one minute, and the second and subsequent cycles of denaturation at 96° C. for 30 seconds, annealing at 60° C. for 2 seconds and extension at 72° C. for 20 seconds, and the final cycle of extension at 72° C. for 7 minutes. RT-PCR products were separated by 5% non-denaturing polyacrylamide gel electrophoresis, stained with SYBR Green I (Molecular Probes), and visualized using Gel Logic 200 Imaging System (Kodak).

human ES cells [2] = test: Test Example 4: effect of FGF2 concentration on human ES cells, proportion of Cdx2-positive cells by flow cytometry; format: cell-based
Procedure: Since there has been a previous report that a high concentration of FGF2 is important for differentiation of human ES cells into Cdx2-positive cells, it was examined whether or not the same results can be obtained. The final concentration of 250 ng/mL of FGF2 was used. In accordance with the method in Test Example 3, differentiation of human ES cells was carried out on gelatin-coated dishes until they differentiated into endoderm, and then (on the 7th day of cultivation), 0, 50, and 250 ng/mL of FGF2, respectively, were added thereto besides BIO (5 μM) and DAPT (10 μM), and the cells were further cultured until the 9th day or 20th day, and the proportion of Cdx2-positive cells was evaluated by flow cytometry. The flow cytometry (FACS) analysis was carried out using BD Cytofix/Cytoperm™ Kit (BD Biosciences) in accordance with a manual provided by the manufacturer.

human ES cells [3] = test: Test Example 3: addition of various activators in human ES cells, proportion of Cdx2-positive cells by flow cytometry; format: cell-based; conditions: 20th day of cultivation; FGF2 50 ng/mL besides BIO (5 ηM) and DAPT (10 μM)
Procedure: With respect to human ES cells, it was examined whether or not addition of FGF2, BMP4 and/or SAG improves an efficiency of differentiation into Cdx2-positive cells in a feeder-free system.
First, for the experiment of inducing the differentiation, human ES cells were plated on gelatin-coated dishes at 69,000 cells/cm^2. The ES cells were cultured for seven days in RPMI 1640 medium (Invitrogen) supplemented with NEAA, L-Gln, PS, β-ME, 10 μg/mL of Insulin (Sigma-Aldrich), 100 ng/mL of recombinant human activin A (R&D Systems, Minneapolis, Minn.), and B27 supplement (Invitrogen). Then, the culture medium was replaced with 10% KSR supplemented with 2,000 mg/mL of glucose, BIO ([…]), DAPT (10 μM) and activators and growth factors at the concentrations as described in Test Example 2. After that, cell culturing was further continued, and the cells were separated on the 9th day and the 20th day of cultivation in the same manner as Example 1, and then, the proportion of Cdx2-positive cells was evaluated by use of flow cytometry. The flow cytometry (FACS) analysis was carried out using BD Cytofix/Cytoperm™ Kit (BD Biosciences) in accordance with a manual provided by the manufacturer.

mouse ES cells = test: Test Example 2: addition of various activators, proportion of Cdx2-positive cells by flow cytometry, feeder-free; format: cell-based; conditions: for Cdx2-positive cells: BIO (5 μM) and DAPT (10 μM) with or without FGF2 50 ng/mL
Procedure: Therefore, next, an experiment in which the FGF signaling, the BMP signaling and the Hh signaling were activated was carried out. In view of micro-array data showing that MEF cells express FGF2 and BMP4, 50 ng/mL of FGF2 (PEPROTECH) and 25 ng/mL of BMP4 (R&D Systems) were used to activate the FGF signaling and the BMP signaling. Furthermore, as to activation of the Hh signaling, 300 nM of SAG (MERCK) (smoothend agonist; smo) was used.
For the experiment of inducing the differentiation, the induction of differentiation was carried out in a feeder-free system as described below. First, mouse ES cells were plated on a gelatin-coated dish at 6,900 cells/cm^2. The ES cells were cultured for 7 days in DMEM medium (Dulbecco's Modified Eagle Medium) (Invitrogen, Glasgow, UK) containing 4,500 mg/L of glucose, supplemented with NEAA, L-Gln, PS, β-ME, 10 μg/mL of Insulin (Sigma-Aldrich), […] of Transferin (Sigma-Aldrich), 6.7 pg/mL of Selenium (Sigma-Aldrich), 0.25% AlbuMax (Invitrogen), and 10 ng/mL of recombinant human activin A (R&D Systems, Minneapolis, Minn.), and then, the culture medium was replaced with 10% KSR containing 2,000 mg/mL of glucose, BIO (5 μM) and DAPT (10 μM) and further supplemented with the activator or growth factor. After that, cell culturing was further continued, the cells were separated on the 10th day and the 15th day of cultivation as described in Example 1, and then, the proportion of Cdx2-positive cells was evaluated by use of flow cytometry. The flow cytometry (FACS) analysis was carried out using BD Cytofix/Cytoperm™ Kit (BD Biosciences) in accordance with a manual provided by the manufacturer.

[4] = test system: khES-3 (human ES cell line); test: Intestinal differentiation of human ES cells on M15 cells; format: cell-based; parameters: dose or concentration left out as unconfirmed; conditions: activin for 10 days
From the text: Human ES cells (KhES-3) (PMID: 16707099) was those provided by Dr. N. Nakatsuji and Dr. H. Suemori (Kyoto University, Kyoto, Japan), and were used in accordance with the hES cell guidelines of the Japanese government. The undifferentiated hES cells were maintained on a feeder layer of MEF in Knockout DMEM/F12 (Invitrogen) supplemented with 20% KSR, L-Gln, NEAA and β-ME under 3% CO2. To passage the hES cells, hES cell colonies were detached from the feeder layer by treating them with 0.25% trypsin and 0.1 mg/mL of collagenase IV in PBS containing 20% KSR and 1 mM of CaCl2 at 37° C. for 5 minutes, followed by adding a culture medium thereto and gently pipetting them several times to desegregate ES cell clumps into smaller pieces (5-20 cells).
For differentiation induction, the human ES cells were pre-treated with Y27632 (Wako) for 24 hours, and then, they were plated at 50,000 cells per well in 24-well plates that had been pre-coated with M15 cells. The ES cells were dissociated with 0.25% trypsin-EDTA (Invitrogen), and cultured in Y27632 containing an ES maintenance medium for one day. One day after plating, the cells were washed by PBS, and the medium was changed to a differentiation medium. […]

Molecule	induction of Cdx2-expressing intestinal cells ([1]; FGFs added from Day 4 of the differentiation, on MEF cells, immunohistochemistry on day 12)	molecular markers for enterocytes (Ifabp, Isx), goblet cells (Tff3), Paneth cells (Lyz1) and enteroendocrine cells (Sct, Syp, Sst, Gast) ([1]; RT-PCR, day 15, BIO and DAPT, or FGF2 (256 ng/mL) only without BIO and DAPT)	proportion of Cdx2-positive cells (human ES cells [2]; 9th day of cultivation, 250 ng/mL of FGF2 besides BIO (5 μM) and DAPT (10 μM))	proportion of Cdx2 positive cells (human ES cells [2]; 20th day of cultivation, 0, 50 and 250 ng/mL of FGF2 besides BIO (5 μM) and DAPT (10 μM))	proportion of Cdx2-positive cells (human ES cells [3])	Cdx2-positive cells (mouse ES cells; 10th day of cultivation) [%]	number of Cdx2-positive cells versus control (only BIO and DAPT) (mouse ES cells; 10th day of cultivation, FGF2 50 ng/mL or SAG 300 nM added besides BIO and DAPT)	Cdx2-positive cells (mouse ES cells; 15th day of cultivation)	efficiency of differentiation versus control (only BIO and DAPT) (mouse ES cells; 15th day of cultivation, FGF2 added besides BIO and DAPT)	differentiation of khES-3 into definitive endoderm [4]
FGF2: basic fibroblast growth factor, FGF2 (human bFGF) (Peprotech)	induced Cdx2-expressing intestinal cells	induced at much lower levels; also recorded: small in extent	decreased	decreased depending on the concentration of FGF2	decreased	40	significant increase	about 60%	more efficiently differentiate	
B1										differentiated into definitive endoderm

Source: patent publication US9376665B2, “Method for producing intestinal cells” (National University Corporation Kumamoto University, priority 2010, dated 2016)
